# Experimental data published in US8012944B2, “Method for treating cancer using IAP antisense oligomer and chemotherapeutic agent” (Pharmascience Inc., priority 2003, dated 2011).
# How the values were obtained:
# [1] = system: MDA-MB-435/LCC6 human breast carcinoma xenografts; assay: Systemic (i.p.) PS-oligonucleotides in LCC6 breast carcinoma xenografts; assay type: in vivo, female SCID-RAG2 mice; details: 12.5 mg/kg i.p.; day 35, two weeks after the last treatment
# Procedure: Initial systemic PS-oligonucleotide studies were designed without any chemotherapeutic agents. SCID-RAG2 mice were inoculated with H460 human lung carcinoma cells (s.c. shoulder injection of 10^6 cells) and treatments with G4 and F3 AS PS-oligonucleotides, as well as a scrambled control, were initiated three days after tumor inoculation. Nucleobase oligomer injections were administered i.p. at 12.5 mg/kg three times a week for three weeks. At the end of the treatment period, mean tumor sizes in the groups treated with either G4 or F3 AS oligonucleotides were ˜50% smaller than in the group treated with a scrambled control oligonucleotides (FIG. 15). The same treatment protocol was tested on female SCID-RAG2 mice inoculated orthotopically with MDA-MB-435/LCC6 human breast carcinoma cells. Two weeks after the last treatment (day 35) tumor volumes of mice treated with F3, C5 or G4 AS oligonucleotides were 70%, 60%, and 45%, respectively, smaller than vehicle controls (FIG. 16).
# Efficacy experiments were conducted in male RAG2 immunodeficient mice bearing NCI-H460 tumours or female RAG2 mice bearing LCC6 tumors. Treatments were commenced on day 3 after tumor inoculation. Saline (controls), G4 AS oligonucleotides (5 or 15 mg/kg), or G4 SC oligonucleotides (5 or 15 mg/kg) were administered i.p. daily for five doses a week over a three week regimen. Vinorelbine (VNB, 5 or 10 mg/kg) was administered i.v. via the tail vein, either alone or in combination with oligonucleotides, at day 3, 7, 11 and 17 after tumor inoculation. When oligonucleotides were administered in combination with VNB, the drug treatment was performed four hours after ODN treatment.
# H460 cells = assay: H460 cell growth, viability or death (MTT assay); assay type: cell-based, human; details: 1.2 μM
# Procedure: Growth inhibition of […] cells was determined by the colorimetric MTT cell viability/proliferation assay. In brief, cells were treated with liposome-oligonucleotide complexes for 4.5 h, then incubated for another 48 h at 37° C. in medium without transfection reagent or oligonucleotides in the presence or absence of anticancer drugs. MTT (25 μg/well) was added to each well, and the plates incubated for 3 h at 37° C. Following the incubation step, the colored formazan product was dissolved by the addition of 200 μl DMSO. Plates were read using the microtiter plate reader (Dynex Technologies Inc., Chantilly, Va.) at a wavelength of 570 nm. The percentage of surviving cells in wells treated with oligonucleotides was normalized to untreated controls. All assays were performed in triplicate.
# Bcl-2 and Bax = assay: Bcl-2:Bax ratio in H460 cells (western blot); assay type: cell-based, human; details: 1.2 μM
# Procedure: FIGS. 11A and 11B are schematic illustrations showing XIAP oligonucleotide-mediated effects on caspase activation. The effect of XIAP oligonucleotides F3, G4, or C5, or their respective RP and SC ODN controls at 1.2 μM on the expression of pro-caspase-3, PARP (both full length (116 kDa) and processed (85 kDa)) (FIG. 10A) and Bcl-2 and Bax protein levels (FIG. 10B) in transfected H460 cells compared to control is shown. Proteins expression was analyzed by western blotting. Bcl-2 and Bax protein levels were normalized to cellular actin levels and quantified by densitometry. […]
# The cells or tumor tissue samples were lysed with ice-cold lysis buffer (50 mM Tris, 150 mM NaCl, 2.5 mM EDTA, 0.1% SDS, 0.5% sodium deoxycholate, 1% NP-40, 0.02% sodium azide) containing protease inhibitors (Complete-Mini protease inhibitor tablets; Boehringer Mannheim GmBH, Mannheim, Germany). […] Protein content in the lysed extracts was determined using a detergent-compatible Bio-Rad assay (Bio-Rad Labs, Hercules, Calif.). […] Proteins were detected by enhanced chemiluminescence (ECL; Amersham Pharmacia Biotech, Buckinghamshire, England) and visualized after exposure to Kodak autoradiography film. Scanning densitometry (Molecular Dynamics, Sunnyvale, Calif.) was performed to quantify band intensities by volume/area integration. […]
sequence,measurement,setting,value
GCTGAGTCTCCATATTGCC [G4 AS] (chemistry not given here),tumor volumes smaller than vehicle controls,[1],45%
same,cell death,H460 cells; H460 cells,60%
same,reduction of H460 cell growth relative to untreated control,"H460 cells; MTT, 48 hours after transfection",55%
same,ratio of Bcl-2:Bax,Bcl-2 and Bax,unchanged
